Laboratory results taken from article PMC9476706, “Integrating pharmacokinetics and network analysis to investigate the mechanism of Moutan Cortex in blood-heat and blood stasis syndrome” (Chinese Medicine, 2022).

Test system: APTT
Assay: not given
Set-up: method as in doi:10.5246/jcps.2018.09.062
Conditions: cited from earlier work

SMILES | effect on APTT
Cc1oc2c(O)cccc2c(=O)c1O [3,8-Dihydroxy-2-methylchromone, 3,8-dihydroxy-2-methylchromone] | significantly extend

Test system: not listed separately
Assay: Pharmacokinetic study of nine absorbed components in rat serum after oral RMC extract (UHPLC-DAD);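 also: BHS model made by subcutaneous yeast suspension then two adrenaline injections with ice-water immersion, normal rats given saline instead, serum analytes quantified by UHPLC-DAD at 254 nm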
Conditions: BHS-RMC versus N-RMC rats, oral RMC extract
Description: Twenty-four male Sprague–Dawley rats (weighing 300 ± 20 g) were purchased from Animal Experiment Center, Guangdong Academy of Medical Sciences (Certificate no. SCXK2013-0002). The rats were kept in an environmentally controlled breeding room at a temperature of 22 ± 2 °C and a relative humidity of 55 ± 10% for 1 week before starting the experiments. They were fed with standard laboratory food and water. Both the animal’s care and the study protocol were conducted according to the National Institutes of Health Guide for the Care and Use of Laboratory Animals, and followed the guidelines of the Ethics Committee of Guangdong Pharmaceutical University.
The rats were randomly divided into following four groups: normal groups (Normal groups), BHS model groups (BHS groups), normal group administrated with RMC extraction (N-RMC group), BHS group administrated with RMC extraction (BHS-RMC group), respectively. N-RMC group and BHS-RMC group rats were respectively orally administrated with RMC extraction (equal to 6 g/mL of RMC) for continuous 7 days at a dose of 10 mL/kg, once a day, 1 hour after the sixth day of administration. The rats in BHS groups and BHS-RMC group were subcutaneously injected with 10% aqueous suspension of yeast (10 mL/kg) and then subcutaneously injected with 0.1 mg/mL adrenaline hydrochloride solution twice (at a dose of 0.8 mL/kg, 4 h apart) while body temperature remained relatively steady high. Those rats were soaked in ice-water for 5 min keeping their heads outside surface between two subcutaneous injections of adrenaline hydrochloride solution [39, 40]. At the same time, the normal groups and N-RMC group rats were injected with the same dose of saline (10 mL/kg) subcutaneously. All rats were fasted for 12 h but free for water before taking the blood. On the seventh day, 0.3 mL blood samples were collected from fossa orbitalis vein at the time point of 0.083, 0.25, 0.5, 0.75, 1, 2, 3, 4, 6, 8, 10, 12 and 24 h after oral administration. All blood samples were immediately centrifuged at 13,680 (× g) for 10 min at 4 °C and the serum samples were obtained and stored at −80 °C until analysis.
Firstly, 100 μL serum was spiked with 10 μL IS working solution to mix evenly, then 1 mL methanol was added to protein precipitation, and centrifuged at 1520 (× g) for 10 min at 4 °C. Secondly, the supernatant was collected with a clean tube carefully and filtered through 0.22 μm microporous filter head. Thirdly, the filtrate was evaporated to dryness under a stream of nitrogen at 40 °C. Finally, the residue was dissolved in 100 μL methanol and 10 μL of aliquot was injected into UHPLC-DAD system for analysis.
The chromatography experiment was carried out using UPLC system (Thermo Fisher Scientific, USA). Chromatographic conditions were according to the paper published by our research group [37]. Column: Acquity UPLC® BEH Shield RP18 Column (2.1 mm × 100 mm, 1.7 μm, Waters, USA). The column temperature was maintained at 30 °C. Mobile phase: Acetonitrile (A) and 0.1% (v/v) formic acid in water (B). The gradient conditions: 0–10 min, 5–15% A; 10–20 min, 15–35% A; 20–30 min, 35–95% A; 30–32 min, 95% A. The samples were kept at 4 °C in the auto-sampler. Flow rate and sample size, 0.2 mL/min and 2 μL; column temperature and detection wavelength, 30 °C and 254 nm.
The concentrations of nine components of all samples were processed by PKSolver pharmacokinetics software. Statistical comparisons among groups were performed with GraphPad Prism 8 using a One-Way ANOVA analysis. Data expressed as mean ± SD and a p value ≤ 0.05 was considered to be statistically significant.

SMILES | Cmax increase in BHS-RMC over N-RMC [%] | AUC increase in BHS-RMC over N-RMC [%]
Cc1oc2c(O)cccc2c(=O)c1O [3,8-Dihydroxy-2-methylchromone, 3,8-dihydroxy-2-methylchromone] | 16 | 
O=C(O)c1ccccc1 [Benzoic acid, benzoic acid] | 49 | 
O=C(O)c1cc(O)c(O)c(O)c1 [Gallic acid, gallic acid] | 42 | 5

Same assay, conditions: male, Sprague-Dawley, rat, serum, po, 10 mL/kg, AUC, BHS-RMC group (BHS model rats), serum, oral RMC extract 10 mL/kg (equal to 6 g/mL of RMC) once a day for 7 days, n = 6

SMILES | AUC [µg·h/mL]
Cc1oc2c(O)cccc2c(=O)c1O [3,8-Dihydroxy-2-methylchromone, 3,8-dihydroxy-2-methylchromone] | 757 ± 8.72
O=Cc1ccc(CO)o1 [5-HMF, 5-hydroxymethylfurfural] | 741 ± 20.3
O=C(O)c1ccccc1 [Benzoic acid, benzoic acid] | 2320 ± 71.3
O=C(O)c1cc(O)c(O)c(O)c1 [Gallic acid, gallic acid] | 1070 ± 72.9
COC(=O)c1ccc(O)cc1 [Methylparaben, methyl paraben] | 39.9 ± 1.34

Same assay, conditions: male, Sprague-Dawley, rat, serum, po, 10 mL/kg, AUC, N-RMC group (normal rats), serum, oral RMC extract 10 mL/kg (equal to 6 g/mL of RMC) once a day for 7 days, n = 6

SMILES | AUC [µg·h/mL]
Cc1oc2c(O)cccc2c(=O)c1O [3,8-Dihydroxy-2-methylchromone, 3,8-dihydroxy-2-methylchromone] | 660 ± 29.9
O=Cc1ccc(CO)o1 [5-HMF, 5-hydroxymethylfurfural] | 1564 ± 4.63
O=C(O)c1ccccc1 [Benzoic acid, benzoic acid] | 1880 ± 217
O=C(O)c1cc(O)c(O)c(O)c1 [Gallic acid, gallic acid] | 1020 ± 26.6
COC(=O)c1ccc(O)cc1 [Methylparaben, methyl paraben] | 22.8 ± 1.34

Same assay, conditions: male, Sprague-Dawley, rat, serum, po, 10 mL/kg, Cmax, BHS-RMC group (BHS model rats), serum, oral RMC extract 10 mL/kg (equal to 6 g/mL of RMC) once a day for 7 days, n = 6

SMILES | Cmax [µg/mL]
Cc1oc2c(O)cccc2c(=O)c1O [3,8-Dihydroxy-2-methylchromone, 3,8-dihydroxy-2-methylchromone] | 134 ± 3.26
O=Cc1ccc(CO)o1 [5-HMF, 5-hydroxymethylfurfural] | 111 ± 7.25
O=C(O)c1ccccc1 [Benzoic acid, benzoic acid] | 213 ± 5.26
O=C(O)c1cc(O)c(O)c(O)c1 [Gallic acid, gallic acid] | 180 ± 11.1
COC(=O)c1ccc(O)cc1 [Methylparaben, methyl paraben] | 2.16 ± 0.11

Same assay, conditions: male, Sprague-Dawley, rat, serum, po, 10 mL/kg, Cmax, N-RMC group (normal rats), serum, oral RMC extract 10 mL/kg (equal to 6 g/mL of RMC) once a day for 7 days, n = 6

SMILES | Cmax [µg/mL]
Cc1oc2c(O)cccc2c(=O)c1O [3,8-Dihydroxy-2-methylchromone, 3,8-dihydroxy-2-methylchromone] | 116 ± 2.12
O=Cc1ccc(CO)o1 [5-HMF, 5-hydroxymethylfurfural] | 413.2 ± 2.01
O=C(O)c1ccccc1 [Benzoic acid, benzoic acid] | 144 ± 4.48
O=C(O)c1cc(O)c(O)c(O)c1 [Gallic acid, gallic acid] | 127 ± 2.9
COC(=O)c1ccc(O)cc1 [Methylparaben, methyl paraben] | 6.35 ± 0.53

Same assay, conditions: male, Sprague-Dawley, rat, serum, po, 10 mL/kg, MRT, BHS-RMC group (BHS model rats), serum, oral RMC extract 10 mL/kg (equal to 6 g/mL of RMC) once a day for 7 days, n = 6

SMILES | MRT [h]
Cc1oc2c(O)cccc2c(=O)c1O [3,8-Dihydroxy-2-methylchromone, 3,8-dihydroxy-2-methylchromone] | 14.1 ± 1.07
O=Cc1ccc(CO)o1 [5-HMF, 5-hydroxymethylfurfural] | 7.47 ± 0.48
O=C(O)c1ccccc1 [Benzoic acid, benzoic acid] | 13.3 ± 0.79
O=C(O)c1cc(O)c(O)c(O)c1 [Gallic acid, gallic acid] | 10 ± 0.96
COC(=O)c1ccc(O)cc1 [Methylparaben, methyl paraben] | 27.1 ± 1.16

Same assay, conditions: male, Sprague-Dawley, rat, serum, po, 10 mL/kg, MRT, N-RMC group (normal rats), serum, oral RMC extract 10 mL/kg (equal to 6 g/mL of RMC) once a day for 7 days, n = 6

SMILES | MRT [h]
Cc1oc2c(O)cccc2c(=O)c1O [3,8-Dihydroxy-2-methylchromone, 3,8-dihydroxy-2-methylchromone] | 6.9 ± 0.68
O=Cc1ccc(CO)o1 [5-HMF, 5-hydroxymethylfurfural] | 4.55 ± 0.03
O=C(O)c1ccccc1 [Benzoic acid, benzoic acid] | 17 ± 2.76
O=C(O)c1cc(O)c(O)c(O)c1 [Gallic acid, gallic acid] | 17.3 ± 0.8
COC(=O)c1ccc(O)cc1 [Methylparaben, methyl paraben] | 7.91 ± 0.56

Same assay, conditions: male, Sprague-Dawley, rat, serum, po, 10 mL/kg, T1/2, BHS-RMC group (BHS model rats), serum, oral RMC extract 10 mL/kg (equal to 6 g/mL of RMC) once a day for 7 days, n = 6

SMILES | half-life [h]
Cc1oc2c(O)cccc2c(=O)c1O [3,8-Dihydroxy-2-methylchromone, 3,8-dihydroxy-2-methylchromone] | 19 ± 1.78
O=Cc1ccc(CO)o1 [5-HMF, 5-hydroxymethylfurfural] | 7.33 ± 2.1
O=C(O)c1cc(O)c(O)c(O)c1 [Gallic acid, gallic acid] | 6.33 ± 0.45
COC(=O)c1ccc(O)cc1 [Methylparaben, methyl paraben] | 17.9 ± 0.84

Same assay, conditions: male, Sprague-Dawley, rat, serum, po, 10 mL/kg, T1/2, N-RMC group (normal rats), serum, oral RMC extract 10 mL/kg (equal to 6 g/mL of RMC) once a day for 7 days, n = 6

SMILES | half-life [h]
Cc1oc2c(O)cccc2c(=O)c1O [3,8-Dihydroxy-2-methylchromone, 3,8-dihydroxy-2-methylchromone] | 4.73 ± 0.29
O=Cc1ccc(CO)o1 [5-HMF, 5-hydroxymethylfurfural] | 3.2 ± 0.03
O=C(O)c1cc(O)c(O)c(O)c1 [Gallic acid, gallic acid] | 10.8 ± 0.87
COC(=O)c1ccc(O)cc1 [Methylparaben, methyl paraben] | 4.93 ± 0.23

Same assay, conditions: male, Sprague-Dawley, rat, serum, po, 10 mL/kg, Tmax, BHS-RMC group (BHS model rats), serum, oral RMC extract 10 mL/kg (equal to 6 g/mL of RMC) once a day for 7 days, n = 6

SMILES | Tmax [h]
Cc1oc2c(O)cccc2c(=O)c1O [3,8-Dihydroxy-2-methylchromone, 3,8-dihydroxy-2-methylchromone] | 0.75
O=Cc1ccc(CO)o1 [5-HMF, 5-hydroxymethylfurfural] | 0.75
O=C(O)c1ccccc1 [Benzoic acid, benzoic acid] | 3
O=C(O)c1cc(O)c(O)c(O)c1 [Gallic acid, gallic acid] | 1
COC(=O)c1ccc(O)cc1 [Methylparaben, methyl paraben] | 1

Same assay, conditions: male, Sprague-Dawley, rat, serum, po, 10 mL/kg, Tmax, N-RMC group (normal rats), serum, oral RMC extract 10 mL/kg (equal to 6 g/mL of RMC) once a day for 7 days, n = 6

SMILES | Tmax [h]
Cc1oc2c(O)cccc2c(=O)c1O [3,8-Dihydroxy-2-methylchromone, 3,8-dihydroxy-2-methylchromone] | 0.75
O=Cc1ccc(CO)o1 [5-HMF, 5-hydroxymethylfurfural] | 3
O=C(O)c1ccccc1 [Benzoic acid, benzoic acid] | 4
COC(=O)c1ccc(O)cc1 [Methylparaben, methyl paraben] | 0.75
